system: T47D pAKT (S473), PI3Kα H1047R mutation present; assay: HTRF pAKT-T47D; conditions: Homo sapiens, T47D, 1 h, read-out: T47D pAKT IC50 (nM);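 also: assay medium was RPMI with 10% FBS and 0.2 units/ml bovine insulin, without phenol red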

| SMILES | IC50 |
| --- | --- |
| CC(=O)Nc1ncc(NC(=O)N[C@H](c2oc3ccc(F)cc3c2C)C(C)C)cn1 [Compound 159] | < 1000 nM |

same assay, conditions: Homo sapiens, T47D, 1 h, read-out: T47D pAKT IC50 (nM), T47D.1 cells, pAKT (S473) HTRF, 1 hour

| SMILES | IC50 |
| --- | --- |
| Cc1c([C@@H](NC(=O)Nc2cnc(N3C[C@H](O)[C@H]3C)nc2)C(C)C)oc2ccc(F)cc12 (relative stereo) [Compound 149, 3-[(1S)-1-(5-fluoro-3-methyl-1-benzofuran-2-yl)-2-methylpropyl]-1-{2-[(2R*,3R**)-3-hydroxy-2-methylazetidin-1-yl]pyrimidin-5-yl}urea] | < 1000 nM |
| Cc1c([C@@H](NC(=O)Nc2cnc(C(N)=O)nc2)C(C)C)oc2ccc(F)cc12 [Compound 78, (S)-5-(3-(1-(5-fluoro-3-methylbenzofuran-2-yl)-2-methylpropyl)ureido)pyrimidine-2-carboxamide] | 1000 to 5000 nM |
| Cc1c([C@@H](NC(=O)Nc2cnc(N3CCS(=O)(=O)CC3)nc2)C(C)C)oc2ccc(F)cc12 [Compound 146, 1-[2-(1,1-dioxo-1lambda6-thiomorpholin-4-yl)pyrimidin-5-yl]-3-[(1S)-1-(5-fluoro-3-methyl-1-benzofuran-2-yl)-2-methylpropyl]urea] | < 1000 nM |
| CNC(=O)C1CN(c2ncc(NC(=O)N[C@H](c3oc4ccc(F)cc4c3C)C(C)C)cn2)C1 [Compound 163, 1-[5-({[(1S)-1-(5-fluoro-3-methyl-1-benzofuran-2-yl)-2-methylpropyl]carbamoyl}amino)pyrimidin-2-yl]-N-methylazetidine-3-carboxamide] | < 1000 nM |
| Cc1c([C@@H](NC(=O)Nc2cnc(N3CC(C(C)(C)O)C3)nc2)C(F)(F)F)oc2c(F)cc(F)cc12 [Compound 205] | < 1000 nM |
| Cc1c([C@@H](NC(=O)Nc2cccc(-c3nnnn3C)c2)C(C)C)oc2ccc(F)cc12 [Compound 125, (S)-1-(1-(5-fluoro-3-methylbenzofuran-2-yl)-2-methylpropyl)-3-(3-(1-methyl-1H-tetrazol-5-yl)phenyl)urea] | 1000 to 5000 nM |
| Cc1c([C@@H](NC(=O)Nc2ccc(Cl)c(S(C)(=O)=O)c2)C(C)C)oc2ccc(F)cc12 [Compound 126, (S)-1-(4-chloro-3-(methylsulfonyl)phenyl)-3-(1-(5-fluoro-3-methylbenzofuran-2-yl)-2-methylpropyl)urea] | 1000 to 5000 nM |
| Cc1c([C@@H](NC(=O)Nc2cnc(N3CCC(C)(O)CC3)nc2)C(C)C)oc2ccc(F)cc12 [Compound 141] | < 1000 nM |
| Cc1c([C@@H](NC(=O)Nc2cnc(N3CCSCC3)nc2)C(C)C)oc2ccc(F)cc12 [Compound 145, 3-[(1S)-1-(5-fluoro-3-methyl-1-benzofuran-2-yl)-2-methylpropyl]-1-[2-(thiomorpholin-4-yl)pyrimidin-5-yl]urea] | < 1000 nM |
| Cc1c([C@@H](NC(=O)Nc2cnc(N)nc2)C2(C)CC2)oc2ccc(F)cc12 [Compound 84, (S)-1-(2-aminopyrimidin-5-yl)-3-((5-fluoro-3-methylbenzofuran-2-yl)(1-methylcyclopropyl)methyl)urea] | < 1000 nM |
| Cc1c([C@H](NC(=O)Nc2cnc(N3CC[C@@H](O)C3)nc2)C(F)(F)F)oc2c(F)cc(F)cc12 [Compound 207] | > 5000 nM |
| Cc1c([C@@H](NC(=O)Nc2cnc(N3CC(S(C)(=O)=O)C3)nc2)C(C)C)oc2ccc(F)cc12 [Compound 128, (S)-1-(1-(5-fluoro-3-methylbenzofuran-2-yl)-2-methylpropyl)-3-(2-(3-(methylsulfonyl)azetidin-1-yl)pyrimidin-5-yl)urea] | 1000 to 5000 nM |
| Cc1c([C@@H](NC(=O)Nc2cnc(N3CC4(CCCO4)C3)nc2)C(C)C)oc2ccc(F)cc12 [Compound 165, 3-[(1S)-1-(5-fluoro-3-methyl-1-benzofuran-2-yl)-2-methylpropyl]-1-(2-{5-oxa-2-azaspiro[3.4]octan-2-yl}pyrimidin-5-yl)urea] | < 1000 nM |
| Cc1c([C@@H](NC(=O)Nc2cnc(N3CCNC(=O)C3)nc2)C(C)C)oc2ccc(F)cc12 [Compound 139] | < 1000 nM |
| CNC(=O)c1ncc(NC(=O)N[C@H](c2oc3ccc(F)cc3c2C)C(C)C)cn1 [Compound 77, (S)-5-(3-(1-(5-fluoro-3-methylbenzofuran-2-yl)-2-methylpropyl)ureido)-N-methylpyrimidine-2-carboxamide] | 1000 to 5000 nM |
| Cc1c([C@H](NC(=O)Nc2ccc3[nH]ncc3c2)C(F)(F)F)oc2c(F)cc(F)cc12 [Compound 193, 3-[(1S)-1-(5,7-difluoro-3-methyl-1-benzofuran-2-yl)-2,2,2-trifluoroethyl]-1-(1H-indazol-5-yl)urea] | > 5000 nM |
| Cc1c([C@@H](NC(=O)Nc2cnc(N3CCOCC3)nc2)C(C)C)oc2ccc(F)cc12 [Compound 107] | < 1000 nM |
| Cc1c([C@@H](NC(=O)Nc2cnc(N3CC(F)C3)nc2)C(F)(F)F)oc2ccc(F)cc12 [Compound 95, (R)-1-(2-(3-fluoroazetidin-1-yl)pyrimidin-5-yl)-3-(2,2,2-trifluoro-1-(5-fluoro-3-methylbenzofuran-2-yl)ethyl)urea] | < 1000 nM |
| Cc1c([C@@H](NC(=O)Nc2cnc(N3CCS(=N)(=O)CC3)nc2)C(C)C)oc2ccc(F)cc12 [Compound 147, 3-[(1S)-1-(5-fluoro-3-methyl-1-benzofuran-2-yl)-2-methylpropyl]-1-[2-(1-imino-1-oxo-1lambda6-thiomorpholin-4-yl)pyrimidin-5-yl]urea] | < 1000 nM |
| Cc1c([C@@H](NC(=O)Nc2cnc(N3CC4(COC4)C3)nc2)C(C)C)oc2ccc(F)cc12 [Compound 135] | < 1000 nM |
| Cc1c([C@@H](NC(=O)Nc2cnc(N3CC4(CCO4)C3)nc2)C(C)C)oc2ccc(F)cc12 [Compound 164, 3-[(1S)-1-(5-fluoro-3-methyl-1-benzofuran-2-yl)-2-methylpropyl]-1-(2-{1-oxa-6-azaspiro[3.3]heptan-6-yl}pyrimidin-5-yl)urea] | < 1000 nM |
| Cc1c([C@@H](NC(=O)Nc2cnc(C(=O)N(C)C)s2)C(C)C)oc2ccc(F)cc12 [Compound 121, (S)-5-(3-(1-(5-fluoro-3-methylbenzofuran-2-yl)-2-methylpropyl)ureido)-N,N-dimethylthiazole-2-carboxamide] | 1000 to 5000 nM |
| Cc1c(C(NC(=O)Nc2ccc(N)cc2)C(F)(F)F)oc2c(F)cc(F)cc12 (single isomer, unassigned) [Compound 221, 1-(4-aminophenyl)-3-(1-(5,7-difluoro-3-methylbenzofuran-2-yl)-2,2,2-trifluoroethyl)urea] | 1000 to 5000 nM |

same assay, conditions: read-out: T47D pAKT IC50; T47D.1 cells, pAKT (S473) HTRF, 1 hour

| SMILES | IC50 |
| --- | --- |
| Cc1c(C(NC(=O)Nc2cnc(N3CCC3)nc2)C(F)(F)F)oc2c(F)cc(F)cc12 (single isomer, unassigned) [Compound 224, 1-(2-(azetidin-1-yl)pyrimidin-5-yl)-3-(1-(5,7-difluoro-3-methylbenzofuran-2-yl)-2,2,2-trifluoroethyl)urea] | 1000 to 5000 nM |
| Cc1c(C(NC(=O)Nc2ccc(N)nc2)C(F)(F)F)oc2c(F)cc(F)cc12 (centres unmarked) [Compound 181] | > 5000 nM |
| Cc1c(C(NC(=O)Nc2cnc(N[C@H](C)CO)nc2)C(F)(F)F)oc2c(F)cc(F)cc12 (single isomer, unassigned) [Compound 187] | > 5000 nM |
| Cc1c(C(NC(=O)Nc2cnc(N3CCNC(=O)C3)nc2)C(F)(F)F)oc2c(F)cc(F)cc12 (single isomer, unassigned) [Compound 190, 1-(1-(5,7-difluoro-3-methylbenzofuran-2-yl)-2,2,2-trifluoroethyl)-3-(2-(3-oxopiperazin-1-yl)pyrimidin-5-yl)urea] | > 5000 nM |
| Cc1c(C(NC(=O)Nc2cnc(N3CC(C(=O)O)C3)nc2)C(F)(F)F)oc2c(F)cc(F)cc12 (single isomer, unassigned) [Compound 198, 1-[5-({[1-(5,7-difluoro-3-methyl-1-benzofuran-2-yl)-2,2,2-trifluoroethyl]carbamoyl}amino)pyrimidin-2-yl]azetidine-3-carboxylic acid] | > 5000 nM |
| CCc1c(C(NC(=O)Nc2cnc(N)nc2)C(F)(F)F)oc2ccc(F)cc12 (racemic) [Compound 133, 1-(2-aminopyrimidin-5-yl)-3-[1-(3-ethyl-5-fluoro-1-benzofuran-2-yl)-2,2,2-trifluoroethyl]urea] | > 5000 nM |
| Cc1c(C(NC(=O)Nc2cnc(N)nc2)C(F)(F)F)oc2c(C3CC3)cc(F)cc12 (single isomer, unassigned) [Compound 218, 1-(2-aminopyrimidin-5-yl)-3-[1-(7-cyclopropyl-5-fluoro-3-methyl-1-benzofuran-2-yl)-2,2,2-trifluoroethyl]urea] | < 1000 nM |
| Cc1c(C(NC(=O)Nc2ccc(N)cc2)C(F)(F)F)oc2c(F)cc(F)cc12 (single isomer, unassigned) [Compound 222, 1-(4-aminophenyl)-3-(1-(5,7-difluoro-3-methylbenzofuran-2-yl)-2,2,2-trifluoroethyl)urea] | < 1000 nM |
| Cc1c(C(NC(=O)Nc2cnc(N3CC(O)C3)nc2)C(F)(F)F)oc2ccc(Cl)cc12 (racemic) [Compound 153, 3-[1-(5-chloro-3-methyl-1-benzofuran-2-yl)-2,2,2-trifluoroethyl]-1-[2-(3-hydroxyazetidin-1-yl)pyrimidin-5-yl]urea] | > 5000 nM |
| Cc1c(C(NC(=O)Nc2cnc(N[C@@H](C)CO)nc2)C(F)(F)F)oc2c(F)cc(F)cc12 (single isomer, unassigned) [Compound 196] | < 1000 nM |
| Cc1c(C(NC(=O)Nc2cnc(N)nc2)C(F)(F)F)oc2c(Cl)cc(F)cc12 (racemic) [Compound 177, 1-(2-aminopyrimidin-5-yl)-3-[1-(7-chloro-5-fluoro-3-methyl-1-benzofuran-2-yl)-2,2,2-trifluoroethyl] urea] | > 5000 nM |
| Cc1c([C@H](NC(=O)Nc2cnc(NCC(C)(C)O)nc2)C(F)(F)F)oc2c(F)cc(F)cc12 [Compound 184] | > 5000 nM |
| Cc1c([C@@H](NC(=O)Nc2cnc(NCC(C)(C)O)nc2)C(F)(F)F)oc2c(F)cc(F)cc12 [Compound 183] | < 1000 nM |
| Cc1c(C(NC(=O)Nc2cnc(N3CC(S(C)(=O)=O)C3)nc2)C(F)(F)F)oc2c(F)cc(F)cc12 (racemic) [Compound 186, 1-(1-(5,7-difluoro-3-methylbenzofuran-2-yl)-2,2,2-trifluoroethyl)-3-(2-(3-(methylsulfonyl)azetidin-1-yl)pyrimidin-5-yl)urea] | < 1000 nM |

Source: patent US12084434B2 (Scorpion Therapeutics, Inc., priority 2021, dated 2024)
